pIC50: −log10 of the molar value. Where a SMILES comes first, the peptide text is derived from it.
molecular target: HLA A*3201 (Homo sapiens, UniProt P04439, A270S/D101S/D185E/E176V/E277Q/F133L/G103R/G107R/G231S/H175R/I121M/I218V/I322F/K168Q/L105A/L300P/L318F/M331R/P208A/P217A/Q94H/R106L/R138Q/S129P/T104I/T323A/T345S/V100E/V321M/V358M); test: biochemical; type: binding

| SMILES | pIC50 |
| --- | --- |
| CC[C@H](C)[C@H](NC(=O)[C@@H](NC(=O)[C@H](Cc1ccc(O)cc1)NC(=O)[C@H](CCC(=O)O)NC(=O)[C@H](CCCCN)NC(=O)[C@H](Cc1ccccc1)NC(=O)[C@H](CC(N)=O)NC(=O)[C@H](CC(C)C)NC(=O)[C@@H](N)C(C)C)[C@@H](C)O)C(=O)O [3102.0371] (H-VLNFKEYTI-OH) | 8.09 |
| CC[C@H](C)[C@H](NC(=O)[C@@H](N)Cc1c[nH]cn1)C(=O)N[C@@H](Cc1ccc(O)cc1)C(=O)N[C@@H](Cc1ccccc1)C(=O)N[C@H](C(=O)N[C@@H](CO)C(=O)N[C@@H](CC(C)C)C(=O)N[C@@H](CC(C)C)C(=O)N[C@@H](CC(C)C)C(=O)O)C(C)C [3102.0380] (H-HIYFVSLLL-OH) | 7.82 |
| CC(C)C[C@H](NC(=O)[C@H](CC(N)=O)NC(=O)[C@H](Cc1ccc(O)cc1)NC(=O)[C@H](Cc1ccc(O)cc1)NC(=O)[C@@H](NC(=O)[C@H](Cc1ccc(O)cc1)NC(=O)[C@H](Cc1ccccc1)NC(=O)[C@H](CC(C)C)NC(=O)[C@@H](N)CCCCN)C(C)C)C(=O)O [3102.0343] (H-KLFYVYYNL-OH) | 9.47 |
| CC[C@H](C)[C@H](NC(=O)[C@H](CO)NC(=O)[C@H](CC(C)C)NC(=O)[C@H](CO)NC(=O)[C@H](CCCNC(=N)N)NC(=O)[C@H](Cc1c[nH]c2ccccc12)NC(=O)[C@@H](NC(=O)[C@@H](NC(=O)[C@H](C)N)[C@@H](C)O)[C@@H](C)CC)C(=O)O [3102.0452] (H-ATIWRSLSI-OH) | 8.72 |
| CC[C@H](C)[C@H](NC(=O)[C@H](C)NC(=O)[C@H](CC(N)=O)NC(=O)[C@@H](NC(=O)[C@@H]1CCCN1C(=O)[C@H](CCC(=O)O)NC(=O)[C@@H](NC(=O)[C@H](CC(C)C)NC(=O)[C@@H](N)CCCCN)[C@@H](C)CC)C(C)C)C(=O)O [3102.0321] (H-KLIEPVNAI-OH) | 7.96 |
| CC[C@H](C)[C@H](NC(=O)[C@@H](NC(=O)[C@@H](N)CO)[C@@H](C)CC)C(=O)N[C@@H](CC(N)=O)C(=O)N[C@@H](CO)C(=O)N[C@@H](CC(N)=O)C(=O)N[C@H](C(=O)N[C@H](C(=O)N[C@@H](Cc1c[nH]c2ccccc12)C(=O)O)[C@@H](C)O)C(C)C [3102.0419] (H-SIINSNVTW-OH) | 7.96 |
| CC(C)C[C@H](NC(=O)CNC(=O)[C@H](C)NC(=O)[C@@H](NC(=O)[C@H](C)N)[C@@H](C)O)C(=O)N[C@@H](Cc1c[nH]cn1)C(=O)N[C@@H](CC(C)C)C(=O)NCC(=O)N[C@@H](Cc1ccccc1)C(=O)O [3102.0295] (H-ATAGLHLGF-OH) | 8.77 |
| CC[C@H](C)[C@H](NC(=O)[C@H](CO)NC(=O)[C@H](CC(C)C)NC(=O)[C@@H](NC(=O)[C@H](CO)NC(=O)[C@H](C)NC(=O)[C@H](CC(C)C)NC(=O)[C@@H](NC(=O)[C@@H](N)CCC(N)=O)[C@@H](C)CC)[C@@H](C)CC)C(=O)O [3102.0474] (H-QILASILSI-OH) | 7.66 |
| CC[C@H](C)[C@H](NC(=O)[C@@H](NC(=O)[C@H](CC(N)=O)NC(=O)[C@H](CC(N)=O)NC(=O)[C@H](Cc1ccc(O)cc1)NC(=O)[C@H](CC(C)C)NC(=O)[C@@H](NC(=O)[C@@H](NC(=O)[C@@H](N)Cc1c[nH]cn1)[C@@H](C)O)[C@@H](C)CC)[C@@H](C)O)C(=O)O [3102.0385] (H-HTILYNNTI-OH) | 8.72 |
| CC[C@H](C)[C@H](NC(=O)[C@H](CC(N)=O)NC(=O)[C@H](CC(N)=O)NC(=O)[C@H](CC(C)C)NC(=O)[C@@H](NC(=O)[C@H](CC(N)=O)NC(=O)[C@H](Cc1ccc(O)cc1)NC(=O)[C@H](CC(C)C)NC(=O)[C@@H](N)Cc1c[nH]cn1)[C@@H](C)CC)C(=O)O [3102.0432] (H-HLYNILNNI-OH) | 7.14 |
| CC[C@H](C)[C@H](NC(=O)[C@H](CC(C)C)NC(=O)[C@H](C)NC(=O)[C@@H](NC(=O)[C@H](C)N)[C@@H](C)O)C(=O)N[C@@H](CC(C)C)C(=O)N[C@H](C(=O)N[C@@H](CO)C(=O)N[C@@H](Cc1ccccc1)C(=O)O)C(C)C [3102.0327] (H-ATALILVSF-OH) | 8.85 |
| CC[C@H](C)[C@H](NC(=O)[C@@H](NC(=O)[C@H](CC(C)C)NC(=O)[C@H](CC(C)C)NC(=O)[C@H](CC(N)=O)NC(=O)[C@H](Cc1ccc(O)cc1)NC(=O)[C@H](CCSC)NC(=O)[C@H](CC(C)C)NC(=O)[C@@H](N)CC(C)C)[C@@H](C)O)C(=O)O [3102.0454] (H-LLMYNLLTI-OH) | 7.14 |
| CC[C@H](C)[C@H](NC(=O)[C@H](CO)NC(=O)[C@@H](NC(=O)[C@@H](NC(=O)[C@H](Cc1ccc(O)cc1)NC(=O)[C@H](CC(N)=O)NC(=O)[C@H](CO)NC(=O)[C@H](CC(C)C)NC(=O)[C@@H](N)Cc1c[nH]cn1)[C@@H](C)CC)C(C)C)C(=O)O [3102.0449] (H-HLSNYIVSI-OH) | 9.00 |
| CC[C@H](C)[C@H](NC(=O)[C@H](CC(N)=O)NC(=O)[C@H](Cc1ccc(O)cc1)NC(=O)[C@H](CC(=O)O)NC(=O)[C@@H](NC(=O)[C@H](Cc1ccc(O)cc1)NC(=O)[C@H](CC(N)=O)NC(=O)[C@H](CC(C)C)NC(=O)[C@@H](N)CCSC)C(C)C)C(=O)O [3102.0374] (H-MLNYVDYNI-OH) | 8.80 |
| CC[C@H](C)[C@H](NC(=O)[C@H](CO)NC(=O)[C@H](CO)NC(=O)[C@@H](NC(=O)[C@H](CO)NC(=O)[C@H](Cc1ccccc1)NC(=O)[C@@H](NC(=O)[C@@H](N)CO)[C@@H](C)O)[C@@H](C)CC)C(=O)N[C@@H](Cc1ccccc1)C(=O)O [3102.0305] (H-STFSISSIF-OH) | 8.96 |
| CC(C)C[C@H](NC(=O)[C@H](CO)NC(=O)[C@@H](N)CCCCN)C(=O)N[C@@H](CCCCN)C(=O)N[C@@H](CCCCN)C(=O)N[C@H](C(=O)N[C@@H](Cc1ccc(O)cc1)C(=O)N[C@H](C(=O)N[C@@H](Cc1ccccc1)C(=O)O)[C@@H](C)O)C(C)C [3102.0442] (H-KSLKKVYTF-OH) | 9.31 |
| CC[C@H](C)[C@H](NC(=O)[C@@H](NC(=O)[C@H](CC(C)C)NC(=O)[C@H](C)NC(=O)[C@@H](NC(=O)[C@@H](NC(=O)[C@@H](NC(=O)[C@@H](NC(=O)[C@@H](N)Cc1c[nH]cn1)[C@@H](C)CC)[C@@H](C)CC)[C@@H](C)CC)C(C)C)[C@@H](C)O)C(=O)O [3102.0368] (H-HIIIVALTI-OH) | 7.10 |
| CC[C@H](C)[C@H](NC(=O)[C@H](CC(C)C)NC(=O)[C@H](CC(C)C)NC(=O)[C@@H](NC(=O)[C@H](Cc1ccccc1)NC(=O)[C@H](CO)NC(=O)[C@H](CC(N)=O)NC(=O)[C@@H](NC(=O)[C@@H](N)CO)C(C)C)[C@@H](C)O)C(=O)O [3102.0331] (H-SVNSFTLLI-OH) | 8.59 |
| CC[C@H](C)[C@H](NC(=O)[C@@H](NC(=O)[C@@H](N)CCCCN)[C@@H](C)O)C(=O)N[C@@H](CC(N)=O)C(=O)N[C@@H](Cc1ccc(O)cc1)C(=O)N[C@@H](CO)C(=O)N[C@@H](Cc1ccccc1)C(=O)N[C@@H](Cc1ccccc1)C(=O)N[C@@H](CC(C)C)C(=O)O [3102.0472] (H-KTINYSFFL-OH) | 9.00 |
| CC(C)C[C@H](N)C(=O)N[C@H](C(=O)NCC(=O)N[C@H](C(=O)N[C@@H](Cc1ccccc1)C(=O)N[C@H](C(=O)N[C@H](C(=O)N[C@@H](C)C(=O)N[C@@H](Cc1ccccc1)C(=O)O)[C@@H](C)O)C(C)C)[C@@H](C)O)[C@@H](C)O [3102.0515] (H-LTGTFVTAF-OH) | 8.06 |
| CC[C@H](C)[C@H](N)C(=O)N[C@H](C(=O)N[C@@H](Cc1ccc(O)cc1)C(=O)N[C@@H](CCC(=O)O)C(=O)N[C@@H](CCCCN)C(=O)N[C@@H](CO)C(=O)N[C@@H](CC(N)=O)C(=O)N[C@@H](CC(N)=O)C(=O)N[C@H](C(=O)O)[C@@H](C)CC)[C@@H](C)O [3102.0422] (H-ITYEKSNNI-OH) | 7.74 |
| CC(C)C[C@H](NC(=O)[C@H](Cc1ccc(O)cc1)NC(=O)[C@H](CC(N)=O)NC(=O)[C@H](Cc1ccccc1)NC(=O)[C@H](Cc1c[nH]c2ccccc12)NC(=O)[C@H](CC(C)C)NC(=O)[C@H](CC(C)C)NC(=O)[C@@H](N)CC(C)C)C(=O)N[C@@H](Cc1ccccc1)C(=O)O [3102.0301] (H-LLLWFNYLF-OH) | 8.82 |
| CSCC[C@H](NC(=O)[C@H](CCCCN)NC(=O)[C@H](CC(N)=O)NC(=O)[C@H](CC(C)C)NC(=O)[C@@H](N)CCCCN)C(=O)N[C@H](C(=O)N[C@H](C(=O)N[C@@H](CCC(=O)O)C(=O)N[C@@H](CC(C)C)C(=O)O)C(C)C)[C@@H](C)O [3102.0316] (H-KLNKMTVEL-OH) | 8.77 |
| CC[C@H](C)[C@H](NC(=O)[C@@H](NC(=O)[C@H](CC(N)=O)NC(=O)[C@H](CO)NC(=O)[C@H](CC(N)=O)NC(=O)[C@H](C)NC(=O)[C@@H](NC(=O)[C@@H](NC(=O)[C@@H](N)CO)[C@@H](C)O)[C@@H](C)CC)[C@@H](C)CC)C(=O)O [3102.0451] (H-STIANSNII-OH) | 7.85 |
| CC[C@H](C)[C@H](N)C(=O)N[C@H](C(=O)N[C@@H](CCSC)C(=O)N[C@H](C(=O)N[C@@H](CC(N)=O)C(=O)N[C@@H](CO)C(=O)N[C@@H](CC(C)C)C(=O)N[C@H](C(=O)N[C@@H](Cc1ccc(O)cc1)C(=O)O)[C@@H](C)O)C(C)C)[C@@H](C)O [3102.0363] (H-ITMVNSLTY-OH) | 7.02 |
| CC[C@H](C)[C@H](NC(=O)[C@@H](NC(=O)[C@@H](NC(=O)[C@H](Cc1c[nH]cn1)NC(=O)[C@H](CC(C)C)NC(=O)[C@H](CCSC)NC(=O)[C@H](CC(N)=O)NC(=O)[C@H](CCC(N)=O)NC(=O)[C@@H](N)CCCCN)C(C)C)[C@@H](C)CC)C(=O)O [3102.0329] (H-KQNMLHVII-OH) | 8.68 |
| CC[C@H](C)[C@H](NC(=O)[C@H](Cc1c[nH]cn1)NC(=O)[C@@H](NC(=O)[C@H](CCSC)NC(=O)[C@H](CCSC)NC(=O)[C@H](CCCCN)NC(=O)[C@H](CCSC)NC(=O)[C@@H](NC(=O)[C@@H](N)CCSC)[C@@H](C)O)C(C)C)C(=O)O [3102.0378] (H-MTMKMMVHI-OH) | 8.32 |
| CC[C@H](C)[C@H](NC(=O)[C@@H](NC(=O)[C@H](Cc1ccccc1)NC(=O)[C@H](CC(C)C)NC(=O)[C@H](Cc1ccccc1)NC(=O)[C@@H](NC(=O)[C@@H](NC(=O)[C@H](CC(C)C)NC(=O)[C@@H](N)CCCCN)[C@@H](C)CC)[C@@H](C)O)C(C)C)C(=O)O [3102.0370] (H-KLITFLFVI-OH) | 9.39 |

Source: publication PMC2248166, “Quantitative peptide binding motifs for 19 human and mouse MHC class I molecules derived using positional scanning combinatorial peptide libraries” (Immunome Research, 2008)
